Consider 13 compounds from ChEMBL document CHEMBL1145039, “Synthesis and biological evaluation of thiol-based inhibitors of glutamate carboxypeptidase II: discovery of an orally active GCP II inhibitor” (J Med Chem, 2003).

The Ki is the dissociation constant of the complex between target and ligand, obtained from inhibition or displacement. A higher Ki goes with lower affinity. What is called half-life is how long it takes for the measured level to halve. A higher half-life goes with slow decline. One may read the AUC as the area under the concentration-time curve, a measure of exposure. Low values mean less exposure, high ones more exposure. One may read the Cmax as the maximum level reached in the sampled fluid or tissue. What is called Tmax is the time from dosing to the highest level. In general, bioavailability refers to dose-corrected exposure relative to a reference, in per cent. High values mean good availability, low ones poor availability. By IC50 is commonly meant the concentration that gives 50% inhibition. A low value points to inhibition by little substance.

Data set [1] addresses T1, Glutamate carboxypeptidase 2 (Homo sapiens, UniProt Q04609).
Description: In vitro inhibitory activity against glutamate carboxypeptidase II (GCP II) using N-acetyl-L-aspartyl-[3H]L-glutamate as a substrate
Data set [2] is described as follows: Half life after intravenously administered dose of 10 mgkg in rats. It counts as ADME, organism-based. The arrangement: dose 10 mgkg, route intravenous. As to conditions: rat, in vivo, iv, 10 mg/kg.
Data set [3] is described as follows: Pharmacokinetic constant Area under curve(AUC) was determined after orally administered dose of 10 mgkg in rats. It counts as ADME, organism-based. The arrangement: dose 10 mgkg, route oral. As to conditions: rat, in vivo, po, 10 mg/kg.
Data set [4] is described as follows: Pharmacokinetic constant Area under curve(AUC) was determined after intravenously administered dose of 10 mgkg in rats. It counts as ADME, organism-based. The arrangement: dose 10 mgkg, route intravenous. The settings on record: rat, in vivo, iv, 10 mg/kg.
The nature of data set [5]: Half life after orally administered dose of 10 mgkg in rats. The settings on record: rat, in vivo, po, 10 mg/kg. Further details: dose 10 mgkg, route oral. It counts as ADME, organism-based.
A short description of data set [6]: Plasma concentration was determined after orally administered dose of 10 mgkg in rats. It counts as ADME, organism-based. As to conditions: rat, po, 10 mg/kg. The arrangement: dose 10 mgkg, route oral.
The nature of data set [7]: Pharmacokinetic constant(Tmax) after orally administered dose of 10 mgkg in rats. The settings on record: rat, in vivo, po, 10 mg/kg. Further details: dose 10 mgkg, route oral. It counts as ADME, organism-based.
Data set [8] is described as follows: Bioavailability after orally administered dose of 10 mgkg in rats. It counts as ADME, organism-based. As to conditions: rat, in vivo, po.
For data set [9], the target named is T1, Glutamate carboxypeptidase 2. The source holds these as a separate data set.
Description: Inhibition of N-acetyl-L-aspartyl-[3H]L-glutamate binding to glutamate carboxypeptidase II (GCP II)
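For IC50 in this document: inhibition of binding of tritium-labelled N-acetyl-L-aspartyl-L-glutamate to the enzyme.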

T1 sequence (Q04609 whole entry): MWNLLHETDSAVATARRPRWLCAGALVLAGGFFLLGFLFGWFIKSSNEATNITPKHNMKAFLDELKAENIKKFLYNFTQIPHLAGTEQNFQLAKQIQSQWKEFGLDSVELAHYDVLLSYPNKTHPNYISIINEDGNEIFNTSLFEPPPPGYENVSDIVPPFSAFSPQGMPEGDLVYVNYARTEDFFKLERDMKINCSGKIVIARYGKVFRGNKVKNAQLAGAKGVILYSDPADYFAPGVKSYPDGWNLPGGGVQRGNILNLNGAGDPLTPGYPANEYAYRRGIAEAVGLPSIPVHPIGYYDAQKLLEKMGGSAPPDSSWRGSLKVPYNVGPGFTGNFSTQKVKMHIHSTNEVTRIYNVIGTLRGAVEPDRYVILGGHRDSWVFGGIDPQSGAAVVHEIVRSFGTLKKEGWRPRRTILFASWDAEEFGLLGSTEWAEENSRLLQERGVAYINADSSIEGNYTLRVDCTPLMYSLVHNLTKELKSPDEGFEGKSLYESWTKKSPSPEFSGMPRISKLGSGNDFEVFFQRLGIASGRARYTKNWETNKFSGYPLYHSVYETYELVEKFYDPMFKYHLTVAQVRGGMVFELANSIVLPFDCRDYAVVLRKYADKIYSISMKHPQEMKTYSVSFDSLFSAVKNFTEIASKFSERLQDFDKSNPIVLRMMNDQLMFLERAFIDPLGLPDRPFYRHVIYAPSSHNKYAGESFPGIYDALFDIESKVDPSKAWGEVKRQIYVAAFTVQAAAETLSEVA

Regarding `O=C(O)C(CS)Cc1ccccc1` (stereo not given), the affinity in data set [1] corresponds to a Ki of 11 nM.
On to `O=C(O)CCC(CCCS)C(=O)O` (stereo not given), for which the results for the half-life in [2] and in [5] were 63 min and 70.8 min, respectively. In addition, the exposure (AUC) in data set [3] was 1820 ng·h/mL; in data set [4], 2550 ng·h/mL. This compound showed a Cmax in data set [6] of 2230 ng/mL. For the same compound, the Tmax in data set [7] turned out to be 9.6 min. In data set [8], the bioavailability turned out to be 71%.
The compound `O=C(O)CCCCS` displayed an IC50 in data set [9] of 1400 nM.
As for `CSCCCC(CCC(=O)O)C(=O)O` (stereo not given), the concentration for half-maximal inhibition (IC50) in [9] was 6500 nM.
Still for that read-out and setting: the value for `O=C(O)CCC(CCCCCS)C(=O)O` (stereo not given) was 2600 nM; that for `O=C(O)CCC(CCCCS)C(=O)O` (stereo not given) was 1100 nM.
In data set [9], `O=C(O)CCC(C(=O)O)P(=O)(O)O` (stereo not given) showed a 50% inhibitory concentration (IC50) of 1400 nM. This IC50 and that of the compound before are within 1.5-fold of each other.
Same read-out and setting: next, `O=C(O)CCC(CCP(=O)(O)O)C(=O)O` (stereo not given): 1200 nM; `O=C(O)CCC(CS)C(=O)O` (stereo not given): 6000 nM.
Same read-out and setting: next, `O=C(O)CCC(CCCSC(c1ccccc1)(c1ccccc1)c1ccccc1)C(=O)O` (stereo not given): over 10000 nM; `O=C(O)CCC(S)C(=O)O` (stereo not given): 2600 nM.
Take `O=C(O)CCC(CCCSSCCCC(CCC(=O)O)C(=O)O)C(=O)O` (stereo not given): the half-life is 22.2 min in [2] and 116 min in data set [5]. Besides, the results for the AUC in [3] and in data set [4] were 53 ng·h/mL and 190 ng·h/mL, respectively. This compound showed an IC50 in data set [9] of 3100 nM. In data set [6], this compound returned a Cmax of 44 ng/mL. Also, in data set [7], the time to peak (Tmax) came out at 54 min.
Turning to `O=C(O)CCC(CCS)C(=O)O` (stereo not given), half-maximal inhibition in data set [9] (IC50) required 580 nM. That is a sub-micromolar value.
